SMILES strings stand for the structures.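 A five-concentration, 48-hour dose response in 96-well plates underlies each endpoint, interpolated linearly between surrounding concentrations. GI50 marks 50% less growth. Definition used: TGI = concentration required for complete inhibition of growth.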 A value given as a limit tells only on which side of the number the result lay.

Experimental findings from PubChem BioAssay (NCI) are described below.

Holding throughout (assay): inhibition of tumour cell growth, NCI panel, 48 h
The subject of test [1] is EKVX NSCLC.
Test [2] relates to LOX IMVI melanoma.
For test [3], the system named is MOLT-4 leukemia.
Test [4] deals with OVCAR-4 ovarian.
In test [5] the test system is SF-268 CNS.
Test [6] relates to SK-MEL-5 melanoma.
Test [7] has as its system SNB-19 CNS.
Test [8] concerns DU-145 prostate.
The test system of test [9] is NCI/ADR-RES ovarian.

For the compound `CN1C(c2ccccc2)CC(C)(O)CC1c1ccccc1` (stereo unspecified), the TGI in test [1], in test [2], in [3], in test [4], in test [5] and in [6] was > 100 µM each time. Also, the TGI in [7] is > 100 µM.
Consider `CCC1=C[C@@H]2CN(C1)Cc1c([nH]c3ccccc13)[C@@](C(=O)OC)(c1cc3c(cc1OC)N(C)[C@H]1[C@@](O)(C(=O)OC)[C@H](OC(C)=O)[C@]4(CC)C=CCN5CC[C@]31[C@@H]54)C2`, for which the GI50 is < 0.01 µM in test [8]; < 0.01 µM in test [1]; < 0.01 µM in test [2]; < 0.01 µM in [3]; 1.58 µM in test [9]; < 0.01 µM in test [4]. Besides, the GI50 in [5], in test [6] and in [7] was < 0.01 µM each time. Also, the TGI in test [8] was < 0.01 µM; in [1], 18.8 µM; in test [2] it was 15.5 µM; in [3], 3.5 µM; in [9], 30.5 µM; in [4], 21 µM. Moreover, the values for the TGI in test [5], in [6] and in test [7] were 14.2 µM, 0.119 µM and 18.9 µM, respectively.
For the compound `Cc1cc(Cl)ccc1NC(=O)CC1SC(=NC(=O)c2ccccc2Cl)NC1=O` (stereo unspecified), the TGI in [1] was > 100 µM; in test [2], 38.6 µM; in [3], 6.65 µM; in [4] it was 38.6 µM; in test [5], 36.7 µM; in test [6], 95.7 µM. Further, the TGI in [7] was > 100 µM.
As to `N#CC(C(=O)/C(=N/NC(=O)c1ccccc1O)C(C#N)c1ccc(Br)cc1)c1ccc(Br)cc1` (stereo unspecified), the TGI was found to be 30 µM in test [1]; 23 µM in test [2]; 44 µM in [3]; 29.4 µM in [4]; 21.5 µM in [6]; 24.3 µM in test [7].
Regarding `N#CCCN(C1=NN(C(=O)CC(=O)Nc2ccc(Cl)cc2)C(c2ccccc2)C1)c1ccc(Cl)cc1` (stereo unspecified), the TGI in [1], in [2], in test [3], in [4], in [5] and in test [6] was > 100 µM in each case. In addition, the TGI in [7] is > 100 µM.
On to `COc1ccc(C2CC(c3ccccc3)=NN2C(=O)c2cc(OC)c(OC)c(OC)c2)cc1O` (stereo unspecified), for which the GI50 in test [8] was 0.479 µM; in test [1], 3.04 µM; in [2], 0.611 µM; in test [3] it was 0.469 µM; in [9], 0.552 µM; in test [4] it was 0.596 µM. Besides, the GI50 was 0.902 µM in test [5], 0.338 µM in test [6] and 0.645 µM in test [7]. The TGI in test [1] was > 100 µM; in test [2] it was 15.6 µM; in [3], 16.2 µM; in test [4] it was > 100 µM; in [5] it was > 39.8 µM; in test [6], 2.17 µM. In addition, the TGI in test [7] is > 100 µM.
As for `CC(=O)n1nnc2ccc([N+](=O)[O-])cc21`, the TGI in [1], in [2], in [3], in test [4], in test [5] and in test [6] was > 100 µM in each case. In addition, in test [7], the TGI was > 100 µM.
With `N#CC(C#N)=Cc1ccc(C(O)P(=O)(O)O)cc1` (stereo unspecified), the TGI in [1], in test [2], in [3], in test [4], in test [5] and in [6] was > 100 µM each time. For the same compound, the TGI in [7] was > 100 µM.
Regarding `O=CC1CCC=CC1NC(=O)OCc1ccccc1` (stereo unspecified), the TGI in test [1], in test [2], in [3], in [4], in test [5] and in test [6] was > 100 µM in each case.
As for `Cn1cnc([N+](=O)[O-])c1Sc1nc2ccccc2o1`, the TGI is 15.3 µM in test [1]; 26.1 µM in test [2]; 8.99 µM in test [3]; 15 µM in test [4]; 14.4 µM in test [5]; 26.5 µM in [6]. This compound displayed a TGI in test [7] of 30.9 µM.
For the compound `Cc1ccc(C(=O)C(c2nc3n(c2O)C(=N)N=N3)c2nc3n(c2O)C(=N)N=N3)cc1` (stereo unspecified), the TGI in test [1], in [2], in test [3], in [4], in test [5] and in [6] was > 100 µM in each case. Moreover, the TGI in [7] was > 100 µM.
Consider `Cc1ccccc1C=NC12CC3CC(CC(C3)C1)C2`, for which the TGI in test [1], in [2], in test [3], in [4], in test [5] and in test [6] was > 100 µM each time. The TGI in [7] was > 100 µM.
In the case of `CC12CC/C(=N/NC(N)=O)C3C1CCCC32`, the TGI in test [2], in [3], in test [4], in [5], in [6] and in test [7] was > 100 µM throughout.
Consider `CCc1cccc(C)c1N1C(=O)C(=O)C(c2nc3ccccc3o2)/C(=N/NC(=S)NN)C1=O` (stereo unspecified), for which the TGI in test [1], in test [2], in [4], in [5], in test [6] and in test [7] was > 100 µM throughout.
With `N#CC(C(=O)CCC(=O)Nc1ccc(Cl)cc1)c1ccc(Cl)cc1` (stereo unspecified), the TGI in [1], in [2], in [3], in test [4], in test [5] and in test [6] was > 100 µM each time. Further, the TGI in test [7] is > 100 µM.
